Test results published in ChEMBL document CHEMBL3885881, “DrugMatrix”.

Species on record: Rattus norvegicus
Assay: DrugMatrix - Regimen: Daily Repeat
Type: toxicity, organism-based, Sprague-Dawley
Design: regimen Daily Repeat, gender Male, age 6-8 weeks
Conditions: in vivo, po, route oral GAVAGE, vehicle 100 % WATER; for ABSOLUTE BASOPHIL / ABSOLUTE EOSINOPHIL / ABSOLUTE LYMPHOCYTE / ABSOLUTE MONOCYTE / ABSOLUTE SEGMENTED NEUTROPHIL / BASOPHIL / EOSINOPHIL / ERYTHROCYTE COUNT / HEMATOCRIT / HEMOGLOBIN / LEUKOCYTE COUNT / LYMPHOCYTE / MEAN CORPUSCULAR HEMOGLOBIN / MEAN CORPUSCULAR HEMOGLOBIN CONCENTRATION / MEAN CORPUSCULAR VOLUME / MONOCYTE / NEUTROPHIL / NUCLEATED RED BLOOD CELLS / PLATELET COUNT: tissue Blood; for ALANINE AMINOTRANSFERASE / ALBUMIN / ALKALINE PHOSPHATASE / ASPARTATE AMINOTRANSFERASE / BLOOD UREA NITROGEN / CARBON DIOXIDE / CHLORIDE / CHOLESTEROL / CREATINE PHOSPHOKINASE / CREATININE / GLUCOSE / LACTATE DEHYDROGENASE / LIPASE / PHOSPHORUS / POTASSIUM / SODIUM / TOTAL BILIRUBIN / TOTAL PROTEIN / URIC ACID: tissue Plasma
[1] = 0 mg/kg, 72 h, dose level Control, time 3 day
[2] = 0 mg/kg, 120 h, dose level Control, time 5 day
[3] = 10 mg/kg, 72 h, dose level Low, time 3 day

`NNc1nncc2ccccc12` [HYDRALAZINE] was tested, and the “ABSOLUTE BASOPHIL” value [1] was 0 CELLS/uL, the “ABSOLUTE EOSINOPHIL” value [1] was 20.17 CELLS/uL and the “ABSOLUTE LYMPHOCYTE” value [1] was 12371.67 CELLS/uL. For the same compound, the “ABSOLUTE MONOCYTE” value [1] was 166 CELLS/uL, the “ABSOLUTE SEGMENTED NEUTROPHIL” value [1] was 1292.17 CELLS/uL and the BASOPHIL [1] was 0%. The EOSINOPHIL [1] was 0.17%, the “ERYTHROCYTE COUNT” value [1] was 5.46 x10E6/uL and the HEMATOCRIT [1] was 34.38%. For the same compound, the HEMOGLOBIN [1] was 13.32 G/DL, the “LEUKOCYTE COUNT” value [1] was 13.85 x10E3/uL and the LYMPHOCYTE [1] was 88.5%. For the same compound, the “MEAN CORPUSCULAR HEMOGLOBIN” value [1] was 24.42 pg, the “MEAN CORPUSCULAR HEMOGLOBIN CONCENTRATION” value [1] was 38.7 G/DL and the “MEAN CORPUSCULAR VOLUME” value [1] was 63.07 fL. For the same compound, the MONOCYTE [1] was 1.17%, the NEUTROPHIL [1] was 10.17% and the “NUCLEATED RED BLOOD CELLS” value [1] was 0.17 /100WBC. For the same compound, the “PLATELET COUNT” value [1] was 1193.5 x10E3/uL, the “ALANINE AMINOTRANSFERASE” value [1] was 54.5 u/L and the ALBUMIN [1] was 4.02 G/DL. The “ALKALINE PHOSPHATASE” value [1] was 346.5 u/L, the “ASPARTATE AMINOTRANSFERASE” value [1] was 103.17 u/L and the “BLOOD UREA NITROGEN” value [1] was 16.5 mg/dL. The “CARBON DIOXIDE” value [1] was 29.83 mmol/L, the CHLORIDE [1] was 99.5 MEQ/L and the CHOLESTEROL [1] was 72.5 mg/dL. For the same compound, the “CREATINE PHOSPHOKINASE” value [1] was 532.5 u/L, the CREATININE [1] was 0.18 mg/dL and the GLUCOSE [1] was 168.5 mg/dL. The “LACTATE DEHYDROGENASE” value [1] was 536.5 u/L, the LIPASE [1] was 11.17 u/L and the PHOSPHORUS [1] was 11.48 mg/dL. For the same compound, the POTASSIUM [1] was 5.95 MEQ/L, the SODIUM [1] was 140.5 MEQ/L and the “TOTAL BILIRUBIN” value [1] was 0.18 mg/dL. The “TOTAL PROTEIN” value [1] was 5.77 G/DL, the “URIC ACID” value [1] was 1.42 mg/dL and the “ABSOLUTE BASOPHIL” value [2] was 0 CELLS/uL. For the same compound, the “ABSOLUTE EOSINOPHIL” value [2] was 22.83 CELLS/uL, the “ABSOLUTE LYMPHOCYTE” value [2] was 12202.83 CELLS/uL and the “ABSOLUTE MONOCYTE” value [2] was 158 CELLS/uL. For the same compound, the “ABSOLUTE SEGMENTED NEUTROPHIL” value [2] was 1283 CELLS/uL, the BASOPHIL [2] was 0% and the EOSINOPHIL [2] was 0.17%. The “ERYTHROCYTE COUNT” value [2] was 5.88 x10E6/uL, the HEMATOCRIT [2] was 36.62% and the HEMOGLOBIN [2] was 14.07 G/DL. The “LEUKOCYTE COUNT” value [2] was 13.67 x10E3/uL, the LYMPHOCYTE [2] was 89.5% and the “MEAN CORPUSCULAR HEMOGLOBIN” value [2] was 23.95 pg. The “MEAN CORPUSCULAR HEMOGLOBIN CONCENTRATION” value [2] was 38.43 G/DL, the “MEAN CORPUSCULAR VOLUME” value [2] was 62.28 fL and the MONOCYTE [2] was 1.17%. For the same compound, the NEUTROPHIL [2] was 9.17%, the “NUCLEATED RED BLOOD CELLS” value [2] was 0.17 /100WBC and the “PLATELET COUNT” value [2] was 1198 x10E3/uL. For the same compound, the “ALANINE AMINOTRANSFERASE” value [2] was 51 u/L, the ALBUMIN [2] was 4.3 G/DL and the “ALKALINE PHOSPHATASE” value [2] was 343 u/L. For the same compound, the “ASPARTATE AMINOTRANSFERASE” value [2] was 89.83 u/L, the “BLOOD UREA NITROGEN” value [2] was 17.67 mg/dL and the “CARBON DIOXIDE” value [2] was 27.17 mmol/L. The CHLORIDE [2] was 98.33 MEQ/L, the CHOLESTEROL [2] was 82.5 mg/dL and the “CREATINE PHOSPHOKINASE” value [2] was 533.33 u/L. The CREATININE [2] was 0.18 mg/dL, the GLUCOSE [2] was 152.67 mg/dL and the “LACTATE DEHYDROGENASE” value [2] was 220.33 u/L. It also gave an LIPASE [2] of 11.5 u/L, a PHOSPHORUS [2] of 11.25 mg/dL and a POTASSIUM [2] of 6.29 MEQ/L. The SODIUM [2] was 140.53 MEQ/L, the “TOTAL BILIRUBIN” value [2] was 0.22 mg/dL and the “TOTAL PROTEIN” value [2] was 6.12 G/DL. The “URIC ACID” value [2] was 1.42 mg/dL, the “ABSOLUTE BASOPHIL” value [3] was 0 CELLS/uL and the “ABSOLUTE EOSINOPHIL” value [3] was 33.33 CELLS/uL. The “ABSOLUTE LYMPHOCYTE” value [3] was 12179.67 CELLS/uL, the “ABSOLUTE MONOCYTE” value [3] was 152 CELLS/uL and the “ABSOLUTE SEGMENTED NEUTROPHIL” value [3] was 1268.33 CELLS/uL. For the same compound, the BASOPHIL [3] was 0%, the EOSINOPHIL [3] was 0.33% and the “ERYTHROCYTE COUNT” value [3] was 5.03 x10E6/uL. For the same compound, the HEMATOCRIT [3] was 31.97%, the HEMOGLOBIN [3] was 12.87 G/DL and the “LEUKOCYTE COUNT” value [3] was 13.63 x10E3/uL. For the same compound, the LYMPHOCYTE [3] was 89.67%, the “MEAN CORPUSCULAR HEMOGLOBIN” value [3] was 25.6 pg and the “MEAN CORPUSCULAR HEMOGLOBIN CONCENTRATION” value [3] was 40.27 G/DL. The “MEAN CORPUSCULAR VOLUME” value [3] was 63.57 fL, the MONOCYTE [3] was 1% and the NEUTROPHIL [3] was 9%. The “NUCLEATED RED BLOOD CELLS” value [3] was 0 /100WBC, the “PLATELET COUNT” value [3] was 1225.67 x10E3/uL and the “ALANINE AMINOTRANSFERASE” value [3] was 46.67 u/L. For the same compound, the ALBUMIN [3] was 3.87 G/DL, the “ALKALINE PHOSPHATASE” value [3] was 333.67 u/L and the “ASPARTATE AMINOTRANSFERASE” value [3] was 83.33 u/L. The “BLOOD UREA NITROGEN” value [3] was 16 mg/dL, the “CARBON DIOXIDE” value [3] was 30.33 mmol/L and the CHLORIDE [3] was 100.33 MEQ/L. The CHOLESTEROL [3] was 61.33 mg/dL, the “CREATINE PHOSPHOKINASE” value [3] was 318 u/L and the CREATININE [3] was 0.15 mg/dL. For the same compound, the GLUCOSE [3] was 154 mg/dL, the “LACTATE DEHYDROGENASE” value [3] was 304.33 u/L and the LIPASE [3] was 10.33 u/L. For the same compound, the PHOSPHORUS [3] was 11.37 mg/dL, the POTASSIUM [3] was 6.36 MEQ/L and the SODIUM [3] was 141.6 MEQ/L. The “TOTAL BILIRUBIN” value [3] was 0.2 mg/dL, the “TOTAL PROTEIN” value [3] was 5.7 G/DL and the “URIC ACID” value [3] was 1.67 mg/dL.
